Measurements taken from patent publication EP4653437A2 (Innovo Therapeutics Inc., priority 2023, dated 2024).

Experiments:
A549 cells = test: Measurement of PGE2-increasing activity in A549 cells (IL-1β stimulated, PGE2 quantified in supernatant); format: cell-based; conditions: Homo sapiens, 24 h; concentration of 1 µM of each compound; IL-1β treated A549 cells; read-out: Increased PGE2 production in A549 cells
Method: A549 cells were prepared at a cell number of 1 x 10^5/mL in F12K medium containing 10% FBS (Fetal Bovine Serum), and 2 x 10^4/200 µL was added to each well of a 96-well cell culture plate, and then cultured in an incubator with 5% CO2 at 37 °C for 24 hours. After the culture was complete and all F12K medium was removed, all wells were washed once with 100 µL of PBS, and treated with 160 µL of serum-free F12K medium. Then, 20 µL of IL-1β diluted 10-fold to a concentration of 1 ng/mL in serum-free F12K medium was treated to wells to be treated with IL-1β, and 20 µL of serum-free F12K medium was treated to wells not treated with IL-1β. For the wells to be treated with the compound, 20 µL of the compound dissolved in 100% DMSO was diluted to a concentration 10 times of the desired compound concentration in serum-free F12K medium so that the final DMSO concentration treated to the cells was 0.1%, and for the wells not to be treated with the compound, 20 µL of DMSO diluted in serum-free F12K medium so that the final DMSO concentration treated to the cells was 0.1% was treated. In order to confirm the increase or decrease in the secretion amount of PGE2 in the supernatant collected after culturing for 24 hours in an incubator with 5% CO2 at 37 °C, PGE2 was quantified using the Prostaglandin E2 Parameter (SKGE004B).

human 15-PGDH = molecular target: T1, human 15-PGDH (Homo sapiens, UniProt P15428); test: Evaluation of 15-PGDH inhibitory activity (fluorescence enzyme assay, NAD+/PGE2); format: biochemical; conditions: human 15-PGDH enzyme, fluorescence Vmax
T1 construct: purchased R&D System 5660-DH
T1 sequence (P15428 1-266): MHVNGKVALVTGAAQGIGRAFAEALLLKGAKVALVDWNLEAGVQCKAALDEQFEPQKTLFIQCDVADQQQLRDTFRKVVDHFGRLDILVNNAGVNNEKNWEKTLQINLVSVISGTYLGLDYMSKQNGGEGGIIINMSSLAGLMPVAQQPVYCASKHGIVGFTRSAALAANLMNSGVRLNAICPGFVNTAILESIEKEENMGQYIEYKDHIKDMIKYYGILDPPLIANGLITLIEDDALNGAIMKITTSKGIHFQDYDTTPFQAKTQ
Method: 15-PGDH inhibition activity of Example compounds was measured as follows. 6.7 ng of human 15-PGDH (R&D System# 5660-DH) enzyme (10 µL) was added to a black 96 well plate, 60 µL of buffer (50 mM Tris-HCl, pH 7.5, 0.01% Tween 20) was added, and 10 µL of 200 µM β-Nicotinamide adenine dinucleotide sodium salt (Sigma, Cat# N0632-5G) was added. 10 µL of (10x) compound solution in DMSO was added and reacted for 10 minutes at room temperature.

IC50 (human 15-PGDH)	SMILES	fold induction at 1 µM (A549 cells)
≤ 100 nM	Cn1cnc2ccc(-c3cccc4c(C(=O)N5CCCCC5)cnn34)cc2c1=O [Example 245, 3-methyl-6-(3-(piperidine-1-carbonyl)pyrazolo[1,5-a]pyridin-7-yl)quinazolin-4(3H)-one]	> 1.5
≤ 100 nM	CC(C)N1Cc2ccc(-c3cccc4c(C(=O)N5CCCCC5)cnn34)cc2C1=O [Example 142, 2-isopropyl-6-(3-(piperidine-1-carbonyl)pyrazolo[1,5-a]pyridin-7-yl)isoindolin-1-one]	> 1.5
≤ 100 nM	Cc1ncc(-c2cc(-c3cccc4c(C(=O)N5CCCCC5)cnn34)cc(N3CCOC3=O)n2)cn1 [Example 372, 3-(6-(2-methylpyrimidin-5-yl)-4-(3-(piperidine-1-carbonyl)pyrazolo[1,5-a]pyridin-7-yl)pyridin-2-yl)oxazolidin-2-one]	> 1.5
≤ 100 nM	O=C(Nc1cccnc1)c1cncc(-c2cccc3c(C(=O)N4CCCCC4)cnn23)c1 [Example 53, 5-(3-(piperidine-1-carbonyl)pyrazolo[1,5-a]pyridin-7-yl)-N-(pyridin-3-yl)nicotinamide]	> 1.5
≤ 100 nM	N#CCCNC(=O)c1cncc(-c2cccc3c(C(=O)N4CCCCC4)cnn23)c1 [Example 51, N-(2-cyanoethyl)-5-(3-(piperidine-1-carbonyl)pyrazolo[1,5-a]pyridin-7-yl)nicotinamide]	> 1.5
≤ 100 nM	O=C(c1cnn2c(-c3cnc(-c4noc(=O)[nH]4)nc3)cccc12)N1CCCCC1 [Example 321, 3-[5-[3-(piperidine-1-carbonyl)pyrazolo[1,5-a]pyridin-7-yl]pyrimidin-2-yl]-4H-1,2,4-oxadiazol-5-one]	> 1.5
≤ 100 nM	Cn1nccc1-c1cnc(F)c(-c2cccc3c(C(=O)N4CCCCC4)cnn23)c1 [Example 325, (7-(2-fluoro-5-(1-methyl-1H-pyrazol-5-yl)pyridin-3-yl)pyrazolo[1,5-a]pyridin-3-yl)(piperidin-1-yl)methanone]	> 1.5
≤ 100 nM	CN1CCN(C(=O)c2ccc(-c3cccc4c(C(=O)N5CCCCC5)cnn34)cn2)CC1 [Example 83, (4-methylpiperazin-1-yl)(5-(3-(piperidine-1-carbonyl)pyrazolo[1,5-a]pyridin-7-yl)pyridin-2-yl)methanone]	> 1.5
≤ 100 nM	O=C(c1ncc(-c2cccc3c(C(=O)N4CCCCC4)cnn23)cn1)N1CCC1 [Example 277, [7-[2-(azetidine-1-carbonyl)pyrimidin-5-yl]pyrazolo[1,5-a]pyridin-3-yl]-(1-piperidyl)methanone]	> 1.5
≤ 100 nM	N#Cc1ncc(-c2cccc3c(C(=O)N4CCCCC4)cnn23)cc1F [Example 205, 3-fluoro-5-[3-(piperidine-1-carbonyl)pyrazolo[1,5-a]pyridin-7-yl]pyridine-2-carbonitrile]	> 1.5
≤ 100 nM	N#Cc1ccc(-c2cccc3c(C(=O)N4CCC(F)CC4)cnn23)cc1 [Example 156, 4-(3-(4-fluoropiperidine-1-carbonyl)pyrazolo[1,5-a]pyridin-7-yl)benzonitrile]	> 1.5
≤ 100 nM	Nc1cccc(-c2cccc3c(C(=O)N4CCCCC4)cnn23)c1 [Example 7, (7-(3-aminophenyl)pyrazolo[1,5-a]pyridin-3-yl)(piperidin-1-yl)methanone]	> 1.5
≤ 100 nM	O=C(c1cnn2c(-c3csc4ccccc34)cccc12)N1CCCCC1 [Example 124, (7-(benzo[b]thiophen-3-yl)pyrazolo[1,5-a]pyridin-3-yl)(piperidin-1-yl)methanone]	> 1.5
≤ 100 nM	NC(=O)Nc1cccc(-c2cccc3c(C(=O)N4CCCCC4)cnn23)c1 [Example 92, 1-(3-(3-(piperidine-1-carbonyl)pyrazolo[1,5-a]pyridin-7-yl)phenyl)urea]	> 1.5
≤ 100 nM	COC(=O)c1cccc(-c2cccc3c(C(=O)N4CCCCC4)cnn23)c1 [Example 3, methyl 3-(3-(piperidine-1-carbonyl)pyrazolo[1,5-a]pyridin-7-yl)benzoate]	< 1.5
≤ 100 nM	Cc1noc(C)c1-c1ncc(-c2cccc3c(C(=O)N4CCCCC4)cnn23)cn1 [Example 399, [7-[2-(3,5-dimethylisoxazol-4-yl)pyrimidin-5-yl]pyrazolo[1,5-a]pyridin-3-yl]-(1-piperidyl)methanone]	> 1.5
≤ 100 nM	O=C(Cc1cccnc1)Nc1cncc(-c2cccc3c(C(=O)N4CCCCC4)cnn23)c1 [Example 327, N-(5-(3-(piperidine-1-carbonyl)pyrazolo[1,5-a]pyridin-7-yl)pyridin-3-yl)-2-(pyridin-3-yl)acetamide]	> 1.5
≤ 100 nM	O=C(c1cnn2c(-c3ccc(N4CC5(CCC5)C4)nc3)cccc12)N1CCCCC1 [Example 220, (7-(6-(2-azaspiro[3.3]heptan-2-yl)pyridin-3-yl)pyrazolo[1,5-a]pyridin-3-yl)(piperidin-1-yl)methanone]	> 1.5
≤ 100 nM	Cn1nc(N)c2cc(-c3cccc4c(C(=O)N5CCCCC5)cnn34)ccc21 [Example 261, [7-(3-amino-1-methyl-indazol-5-yl)pyrazolo[1,5-a]pyridin-3-yl]-(1-piperidyl)methanone]	> 1.5
≤ 100 nM	CN(C)CCNC(=O)c1ccc(-c2cccc3c(C(=O)N4CCCCC4)cnn23)cn1 [Example 79, N-(2-(dimethylamino)ethyl)-5-(3-(piperidine-1-carbonyl)pyrazolo[1,5-a]pyridin-7-yl)picolinamide]	> 1.5
≤ 100 nM	Cn1oc2ccc(-c3cccc4c(C(=O)N5CCCCC5)cnn34)cc2c1=O [Example 268, 2-methyl-5-(3-(piperidine-1-carbonyl)pyrazolo[1,5-a]pyridin-7-yl)benzo[d]isoxazol-3(2H)-one]	> 1.5
≤ 100 nM	O=C(Cc1cccnc1)Nc1ccc(-c2cccc3c(C(=O)N4CCCCC4)cnn23)cc1 [Example 274, N-(4-(3-(piperidine-1-carbonyl)pyrazolo[1,5-a]pyridin-7-yl)phenyl)-2-(pyridin-3-yl)acetamide]	> 1.5
≤ 100 nM	O=C(c1cnn2c(-c3cnn(Cc4ncon4)c3)cccc12)N1CCCCC1 [Example 395, (7-(1-((1,2,4-oxadiazol-3-yl)methyl)-1H-pyrazol-4-yl)pyrazolo[1,5-a]pyridin-3-yl)(piperidin-1-yl)methanone]	> 1.5
≤ 100 nM	N#CCCNC(=O)c1ccc(-c2cccc3c(C(=O)N4CCCCC4)cnn23)cc1 [Example 69, N-(2-cyanoethyl)-4-(3-(piperidine-1-carbonyl)pyrazolo[1,5-a]pyridin-7-yl)benzamide]	> 1.5
≤ 100 nM	CN(C)C1CN(c2cc(-c3cccc4c(C(=O)N5CCCCC5)cnn34)cc(-c3cncc(F)c3)n2)C1 [Example 375, (7-(6-(3-(dimethylamino)azetidin-1-yl)-5'-fluoro-[2,3'-bipyridin]-4-yl)pyrazolo[1,5-a]pyridin-3-yl)(piperidin-1-yl)methanone]	> 1.5
≤ 100 nM	N#CCNC(=O)c1cncc(-c2cccc3c(C(=O)N4CCCCC4)cnn23)c1 [Example 52, N-(cyanomethyl)-5-(3-(piperidine-1-carbonyl)pyrazolo[1,5-a]pyridin-7-yl)nicotinamide]	> 1.5
≤ 100 nM	O=C(COc1ccc(Cl)cc1)Nc1cncc(-c2cccc3c(C(=O)N4CCCCC4)cnn23)c1 [Example 406, 2-(4-chlorophenoxy)-N-(5-(3-(piperidine-1-carbonyl)pyrazolo[1,5-a]pyridin-7-yl)pyridin-3-yl)acetamide]	> 1.5

SMILES	IC50 (human 15-PGDH)	fold induction at 1 µM (A549 cells)
Nc1cnn(-c2cc(-c3cccc4c(C(=O)N5CCCCC5)cnn34)cc(Br)n2)c1 [Example 356, (7-(2-(4-amino-1H-pyrazol-1-yl)-6-bromopyridin-4-yl)pyrazolo|[1,5-a]pyridin-3-yl)(piperidin-1-yl)methanone]	≤ 100 nM	> 1.5
